Experiments:
[1] = Human pharmacokinetic study, urine (DART TOF-MS); assay type: in vivo
Method: (§1) Cranberry extracts 5 and 6 were prepared by HerbalScience Singapore Pte. Ltd. and prepared as 150-mg and 140-mg capsules, respectively. Each pharmacokinetic study (1 per extract) consisted of five healthy consenting adults ranging in age from 25 to 50 were instructed not to consume foods rich in phenolics 24 hours prior to the initiation of the study. A certified individual collected urine samples at several time intervals between 0 and 480 minutes after two capsules of a cranberry extract were ingested immediately after the time zero time point. Blood samples were handled with approved protocols and precautions, centrifuged to remove cells and the serum fraction was collected and frozen. Blood was not treated with heparin to avoid any analytical interference. Serum samples were stored frozen at −20° C. until analysis. The serum was extracted with an equal volume of neat ethanol (USP) to minimize background of proteins, peptides, and polysaccharides present in serum. The ethanol extract was centrifuged at 9300×g for 10 minutes at 4° C., the supernatant was removed, concentrated to 200 μL volume which was then used for DART TOF-MS analyses (FIG. 10). Urine samples were handled with approved protocols and precautions and frozen. Serum samples were stored frozen until analysis. The urine samples were analyzed neat by DART TOF-MS (FIGS. 11 and 12).

[2] = Human pharmacokinetic study, serum (DART TOF-MS); assay type: in vivo; conditions: 5 healthy adults, Extract 5 300 mg oral
Method: as §1

time of appearance in urine ([1]; human, in vivo, po)	time through which urine levels increased (declined thereafter) ([1]; human, in vivo, po)	presence in urine at 8 hours post-ingestion ([1]; in vivo, po)	time of appearance in urine ([1]; in vivo, po)	time through which urine levels increased (declined thereafter) ([1]; in vivo, po)	Molecule	also measured
≤ 1 h	2 h	still present	–	–	O=C(O)c1ccc(O)cc1 [4-hydroxybenzoic acid]	–
≤ 1 h	2 h	–	–	–	C[C@@H](O)[C@H](N)C(=O)O [L-threonine]	–
–	–	still present	≤ 1 h	2 h	c1ccc(-c2cc3ccccc3[nH]2)cc1 [α-phenylindol]	–
–	–	still present	≤ 1 h	2 h	chitosan	–

Second part, the molecule before the results:

Molecule	time of appearance in urine ([1]; human, in vivo, po)	time through which urine levels increased (declined thereafter) ([1]; human, in vivo, po)	presence in urine at 8 hours post-ingestion ([1]; in vivo, po)	time of appearance in urine ([1]; in vivo, po)	time through which urine levels increased (declined thereafter) ([1]; in vivo, po)	also measured
CC1=CC(=O)CC(C)(C)[C@@]1(O)/C=C/C(C)=C\C(=O)O [abscisic acid]	–	–	–	–	–	time after which undetectable in serum [2]: 180 min; time through which serum levels increased (declined thereafter) [2]: about 40 minutes; abundance in urine relative to other bioactives ([1]; Extract 5 300 mg oral): most abundant; time of peak level in urine ([1]; Extract 5 300 mg oral): 2 h; presence in urine at 8 hours post-ingestion ([1]; two vegcaps Extract 6 oral): still present; time through which urine levels increased (declined thereafter) ([1]; two vegcaps Extract 6 oral): 2 h
NCC(=O)CCC(=O)O [aminolevulenic acid]	–	–	–	≤ 1 h	2 h	–
O=CC=Cc1ccccc1 [cinnamaldehyde]	≤ 1 h	2 h	still present	–	–	–
COc1ccc(C2COc3cc(O)ccc3C2)c(O)c1 (stereo not shown) [vestitol]	–	–	still present	≤ 1 h	2 h	–
S-petasine	–	–	–	–	–	time after which undetectable in serum [2]: 180 min; time through which serum levels increased (declined thereafter) [2]: about 40 minutes; time through which urine levels increased (declined thereafter) ([1]; two vegcaps Extract 6 oral): 2 h

From patent US20100028469A1, “Extracts of Cranberry and Methods of Using Thereof” (priority 2008, published 2010)
